In PMC7827406, “Structure–Activity Relationship (SAR) Study of Spautin-1 to Entail the Discovery of Novel NEK4 Inhibitors” (International Journal of Molecular Sciences, 2021):
Like-named read-outs stand apart in the source and are kept apart here.

Key:
Assay in all cases: biochemical
Set-up in all cases: Eurofins KinaseProfiler full panel at Km ATP, residual kinase activity (%) relative to DMSO
PKCδ(h) = target: T1, PKCδ(h) (Homo sapiens, UniProt Q05655)
T1 construct: gene PRKCD
Method in brief: (§1)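 Radiometric kinase activity assays were run with ATP at Km and compounds at 10 µM, and remaining activity (%) was reported. A separate competitive binding screen measured DNA-tagged kinase displaced from immobilized active-site ligands by qPCR, giving percent kinase still bound at 10 µM compound in DMSO.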

cSRC(h) = target: T2, cSRC(h) (Homo sapiens, UniProt P12931)
T2 construct: gene SRC
Method in brief: as §1

cKit(D816V)(h) = target: T3, cKit(D816V)(h) (Homo sapiens, UniProt P10721, D816V)
T3 construct: gene KIT
Method in brief: as §1

PKCε(h) = target: T4, PKCε(h) (Homo sapiens, UniProt Q02156)
T4 construct: gene PRKCE
T4 sequence (Q02156 1-737): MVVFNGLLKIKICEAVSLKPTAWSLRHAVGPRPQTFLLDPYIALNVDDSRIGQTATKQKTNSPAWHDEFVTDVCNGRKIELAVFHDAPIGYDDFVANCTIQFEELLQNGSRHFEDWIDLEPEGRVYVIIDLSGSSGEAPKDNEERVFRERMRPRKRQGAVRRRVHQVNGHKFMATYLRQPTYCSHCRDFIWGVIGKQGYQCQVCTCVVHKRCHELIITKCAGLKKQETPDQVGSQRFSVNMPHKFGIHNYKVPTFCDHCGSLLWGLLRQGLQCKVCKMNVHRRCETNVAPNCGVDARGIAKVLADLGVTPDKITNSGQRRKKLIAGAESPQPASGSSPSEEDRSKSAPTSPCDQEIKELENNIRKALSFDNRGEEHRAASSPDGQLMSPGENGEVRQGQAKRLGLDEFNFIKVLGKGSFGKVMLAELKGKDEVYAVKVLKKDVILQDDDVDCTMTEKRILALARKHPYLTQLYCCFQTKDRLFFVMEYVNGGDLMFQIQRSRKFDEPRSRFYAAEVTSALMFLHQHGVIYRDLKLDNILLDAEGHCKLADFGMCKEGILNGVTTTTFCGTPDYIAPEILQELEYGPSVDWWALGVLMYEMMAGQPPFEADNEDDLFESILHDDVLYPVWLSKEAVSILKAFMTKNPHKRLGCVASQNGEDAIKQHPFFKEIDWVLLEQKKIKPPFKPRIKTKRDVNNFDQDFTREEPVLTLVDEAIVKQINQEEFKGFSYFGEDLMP
Method in brief: as §1

Ros(h) = target: T5, Ros(h) (Homo sapiens, UniProt P08922)
T5 construct: gene ROS1
Method in brief: as §1

MKK3(h) = target: T6, MKK3(h) (Homo sapiens, UniProt P46734)
T6 construct: gene MAP2K3
T6 sequence (P46734 1-347): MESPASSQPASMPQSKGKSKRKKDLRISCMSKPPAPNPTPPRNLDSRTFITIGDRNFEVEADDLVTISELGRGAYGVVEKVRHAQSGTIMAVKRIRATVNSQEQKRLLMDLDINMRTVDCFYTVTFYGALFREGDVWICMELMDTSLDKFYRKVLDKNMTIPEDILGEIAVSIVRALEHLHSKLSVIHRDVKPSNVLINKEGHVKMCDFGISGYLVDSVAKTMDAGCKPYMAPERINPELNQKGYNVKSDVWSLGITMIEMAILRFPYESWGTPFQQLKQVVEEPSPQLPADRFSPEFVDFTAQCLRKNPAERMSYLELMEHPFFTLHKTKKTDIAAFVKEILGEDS
Method in brief: as §1

MST1(h) = target: T7, MST1(h) (Homo sapiens, UniProt Q13043)
T7 construct: gene STK4
T7 sequence (Q13043 1-487): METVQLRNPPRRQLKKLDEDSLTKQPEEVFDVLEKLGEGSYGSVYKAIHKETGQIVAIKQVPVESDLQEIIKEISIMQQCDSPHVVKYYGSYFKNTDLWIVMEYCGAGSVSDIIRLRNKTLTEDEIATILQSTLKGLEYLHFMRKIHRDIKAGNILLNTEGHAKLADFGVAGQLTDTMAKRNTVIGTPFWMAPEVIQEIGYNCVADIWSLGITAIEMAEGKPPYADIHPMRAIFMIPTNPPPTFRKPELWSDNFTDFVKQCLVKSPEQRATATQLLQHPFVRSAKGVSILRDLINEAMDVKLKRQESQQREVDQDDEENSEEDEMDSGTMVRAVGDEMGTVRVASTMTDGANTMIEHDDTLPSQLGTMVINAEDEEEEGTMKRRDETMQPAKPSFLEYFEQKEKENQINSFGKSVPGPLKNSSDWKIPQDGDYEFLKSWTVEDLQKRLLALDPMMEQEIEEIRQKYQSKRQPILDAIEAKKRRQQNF
Method in brief: as §1

PhKγ1(h) = target: T8, PhKγ1(h) (Homo sapiens, UniProt Q16816)
T8 construct: gene PHKG1
Method in brief: as §1

FGFR4(h) = FGFR4(h) (Homo sapiens, UniProt P22455)
Method in brief: as §1

[1] = read-out: Residual activity (%) 5at
[2] = read-out: Residual activity (%) 5as
[3] = read-out: Residual activity (%) 5ay
[4] = read-out: Residual activity (%) Spautin-1 5aa

Chain of FGFR4(h) (P22455 whole entry): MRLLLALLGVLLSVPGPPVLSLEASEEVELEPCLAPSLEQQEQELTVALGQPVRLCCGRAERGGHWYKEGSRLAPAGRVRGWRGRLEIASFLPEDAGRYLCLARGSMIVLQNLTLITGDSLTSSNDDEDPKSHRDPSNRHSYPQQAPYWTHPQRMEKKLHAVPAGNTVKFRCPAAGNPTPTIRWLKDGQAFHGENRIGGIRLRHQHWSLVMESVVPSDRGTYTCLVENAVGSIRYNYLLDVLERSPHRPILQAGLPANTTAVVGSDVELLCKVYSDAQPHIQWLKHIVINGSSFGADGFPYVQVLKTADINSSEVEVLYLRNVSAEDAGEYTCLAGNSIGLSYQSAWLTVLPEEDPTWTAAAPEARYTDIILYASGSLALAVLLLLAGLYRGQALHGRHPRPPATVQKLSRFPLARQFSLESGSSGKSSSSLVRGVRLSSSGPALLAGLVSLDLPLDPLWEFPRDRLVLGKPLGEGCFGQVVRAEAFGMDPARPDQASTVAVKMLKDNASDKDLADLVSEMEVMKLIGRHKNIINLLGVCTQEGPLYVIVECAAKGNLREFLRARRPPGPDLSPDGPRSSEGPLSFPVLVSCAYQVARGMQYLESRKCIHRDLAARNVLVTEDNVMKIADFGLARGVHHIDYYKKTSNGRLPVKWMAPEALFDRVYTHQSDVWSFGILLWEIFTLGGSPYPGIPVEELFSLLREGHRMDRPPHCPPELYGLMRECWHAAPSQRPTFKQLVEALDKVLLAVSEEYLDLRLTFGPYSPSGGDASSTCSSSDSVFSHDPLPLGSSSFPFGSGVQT
T2 sequence (P12931 whole entry): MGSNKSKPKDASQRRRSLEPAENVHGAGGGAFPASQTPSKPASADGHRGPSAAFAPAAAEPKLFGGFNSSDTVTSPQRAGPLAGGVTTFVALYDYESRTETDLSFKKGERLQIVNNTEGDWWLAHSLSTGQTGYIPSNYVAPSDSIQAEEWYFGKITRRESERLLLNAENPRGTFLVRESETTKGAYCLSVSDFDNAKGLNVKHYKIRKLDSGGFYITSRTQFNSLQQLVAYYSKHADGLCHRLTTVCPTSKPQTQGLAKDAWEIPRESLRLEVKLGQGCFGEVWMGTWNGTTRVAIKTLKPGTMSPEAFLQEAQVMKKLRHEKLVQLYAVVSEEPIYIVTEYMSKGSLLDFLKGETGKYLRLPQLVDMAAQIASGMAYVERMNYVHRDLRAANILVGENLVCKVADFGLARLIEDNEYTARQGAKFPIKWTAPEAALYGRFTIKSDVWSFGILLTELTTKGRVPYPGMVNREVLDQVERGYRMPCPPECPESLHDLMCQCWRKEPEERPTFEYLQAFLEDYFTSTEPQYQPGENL
T5 sequence (P08922 whole entry): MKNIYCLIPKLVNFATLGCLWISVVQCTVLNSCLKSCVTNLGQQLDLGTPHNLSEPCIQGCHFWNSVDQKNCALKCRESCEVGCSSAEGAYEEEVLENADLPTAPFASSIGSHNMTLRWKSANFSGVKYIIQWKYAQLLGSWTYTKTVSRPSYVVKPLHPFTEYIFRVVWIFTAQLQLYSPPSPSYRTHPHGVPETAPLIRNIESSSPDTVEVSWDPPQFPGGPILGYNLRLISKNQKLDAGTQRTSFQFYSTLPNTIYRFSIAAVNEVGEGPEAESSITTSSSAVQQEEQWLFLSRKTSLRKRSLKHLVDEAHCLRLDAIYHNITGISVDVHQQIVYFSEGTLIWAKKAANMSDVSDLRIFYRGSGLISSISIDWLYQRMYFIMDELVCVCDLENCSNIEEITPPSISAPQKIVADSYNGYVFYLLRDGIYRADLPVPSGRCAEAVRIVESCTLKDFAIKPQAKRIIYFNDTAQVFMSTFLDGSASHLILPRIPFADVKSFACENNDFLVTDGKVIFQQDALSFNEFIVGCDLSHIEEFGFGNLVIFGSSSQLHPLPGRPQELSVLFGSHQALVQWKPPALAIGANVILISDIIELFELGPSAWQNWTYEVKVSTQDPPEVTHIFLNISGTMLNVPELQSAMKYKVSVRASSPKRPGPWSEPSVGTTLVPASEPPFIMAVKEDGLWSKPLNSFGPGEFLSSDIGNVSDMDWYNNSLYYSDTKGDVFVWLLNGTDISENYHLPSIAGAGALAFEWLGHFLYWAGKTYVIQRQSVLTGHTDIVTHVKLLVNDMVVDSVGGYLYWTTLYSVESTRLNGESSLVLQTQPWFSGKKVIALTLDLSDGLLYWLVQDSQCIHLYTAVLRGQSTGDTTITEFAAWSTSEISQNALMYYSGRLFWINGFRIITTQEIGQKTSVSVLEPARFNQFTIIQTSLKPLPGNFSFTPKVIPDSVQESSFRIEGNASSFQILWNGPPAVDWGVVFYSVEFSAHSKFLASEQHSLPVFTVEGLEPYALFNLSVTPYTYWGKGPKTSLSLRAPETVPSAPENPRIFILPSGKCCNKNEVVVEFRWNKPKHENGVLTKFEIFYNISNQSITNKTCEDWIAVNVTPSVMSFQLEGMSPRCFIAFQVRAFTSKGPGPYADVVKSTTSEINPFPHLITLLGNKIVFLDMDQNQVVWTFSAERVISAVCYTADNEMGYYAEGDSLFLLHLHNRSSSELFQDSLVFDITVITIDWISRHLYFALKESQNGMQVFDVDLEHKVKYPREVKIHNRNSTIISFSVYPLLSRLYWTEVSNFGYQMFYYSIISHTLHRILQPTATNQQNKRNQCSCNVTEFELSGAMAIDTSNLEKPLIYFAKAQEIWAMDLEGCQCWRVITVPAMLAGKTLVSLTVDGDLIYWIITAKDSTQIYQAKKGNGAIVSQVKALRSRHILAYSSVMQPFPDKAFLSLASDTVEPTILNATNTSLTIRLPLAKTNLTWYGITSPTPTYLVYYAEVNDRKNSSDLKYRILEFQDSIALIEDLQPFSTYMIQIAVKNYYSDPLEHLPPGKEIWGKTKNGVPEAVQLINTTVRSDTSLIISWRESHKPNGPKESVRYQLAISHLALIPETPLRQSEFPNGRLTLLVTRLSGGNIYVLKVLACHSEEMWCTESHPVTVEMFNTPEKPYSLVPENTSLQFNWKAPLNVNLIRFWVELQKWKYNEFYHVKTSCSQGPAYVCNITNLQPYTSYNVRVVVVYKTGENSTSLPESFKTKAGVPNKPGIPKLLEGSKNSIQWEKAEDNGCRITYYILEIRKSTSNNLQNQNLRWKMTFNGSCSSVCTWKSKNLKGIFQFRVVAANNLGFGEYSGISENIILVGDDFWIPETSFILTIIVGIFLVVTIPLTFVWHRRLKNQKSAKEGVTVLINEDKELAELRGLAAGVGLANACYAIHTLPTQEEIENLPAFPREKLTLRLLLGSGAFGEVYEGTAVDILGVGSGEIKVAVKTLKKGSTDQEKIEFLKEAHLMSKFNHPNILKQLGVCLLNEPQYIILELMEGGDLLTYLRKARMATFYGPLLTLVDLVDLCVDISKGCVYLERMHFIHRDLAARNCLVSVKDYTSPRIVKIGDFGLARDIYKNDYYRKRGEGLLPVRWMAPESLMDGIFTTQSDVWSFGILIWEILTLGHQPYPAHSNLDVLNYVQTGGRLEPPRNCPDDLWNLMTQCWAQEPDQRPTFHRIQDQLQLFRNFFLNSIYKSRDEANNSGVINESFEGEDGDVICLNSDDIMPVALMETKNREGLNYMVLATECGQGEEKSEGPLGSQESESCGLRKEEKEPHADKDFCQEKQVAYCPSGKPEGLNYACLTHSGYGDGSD
T8 sequence (Q16816 whole entry): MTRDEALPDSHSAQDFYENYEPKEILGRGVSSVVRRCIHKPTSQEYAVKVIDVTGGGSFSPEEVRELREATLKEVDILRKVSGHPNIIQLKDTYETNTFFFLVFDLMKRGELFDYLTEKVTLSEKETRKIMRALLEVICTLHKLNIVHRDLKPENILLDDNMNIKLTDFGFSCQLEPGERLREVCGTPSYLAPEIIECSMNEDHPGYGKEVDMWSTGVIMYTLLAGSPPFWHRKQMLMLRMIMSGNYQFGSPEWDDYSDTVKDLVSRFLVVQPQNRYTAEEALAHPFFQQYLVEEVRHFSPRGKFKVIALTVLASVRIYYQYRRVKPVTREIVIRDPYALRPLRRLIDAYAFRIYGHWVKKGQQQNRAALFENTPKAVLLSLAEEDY
T3 sequence (P10721 whole entry D816V): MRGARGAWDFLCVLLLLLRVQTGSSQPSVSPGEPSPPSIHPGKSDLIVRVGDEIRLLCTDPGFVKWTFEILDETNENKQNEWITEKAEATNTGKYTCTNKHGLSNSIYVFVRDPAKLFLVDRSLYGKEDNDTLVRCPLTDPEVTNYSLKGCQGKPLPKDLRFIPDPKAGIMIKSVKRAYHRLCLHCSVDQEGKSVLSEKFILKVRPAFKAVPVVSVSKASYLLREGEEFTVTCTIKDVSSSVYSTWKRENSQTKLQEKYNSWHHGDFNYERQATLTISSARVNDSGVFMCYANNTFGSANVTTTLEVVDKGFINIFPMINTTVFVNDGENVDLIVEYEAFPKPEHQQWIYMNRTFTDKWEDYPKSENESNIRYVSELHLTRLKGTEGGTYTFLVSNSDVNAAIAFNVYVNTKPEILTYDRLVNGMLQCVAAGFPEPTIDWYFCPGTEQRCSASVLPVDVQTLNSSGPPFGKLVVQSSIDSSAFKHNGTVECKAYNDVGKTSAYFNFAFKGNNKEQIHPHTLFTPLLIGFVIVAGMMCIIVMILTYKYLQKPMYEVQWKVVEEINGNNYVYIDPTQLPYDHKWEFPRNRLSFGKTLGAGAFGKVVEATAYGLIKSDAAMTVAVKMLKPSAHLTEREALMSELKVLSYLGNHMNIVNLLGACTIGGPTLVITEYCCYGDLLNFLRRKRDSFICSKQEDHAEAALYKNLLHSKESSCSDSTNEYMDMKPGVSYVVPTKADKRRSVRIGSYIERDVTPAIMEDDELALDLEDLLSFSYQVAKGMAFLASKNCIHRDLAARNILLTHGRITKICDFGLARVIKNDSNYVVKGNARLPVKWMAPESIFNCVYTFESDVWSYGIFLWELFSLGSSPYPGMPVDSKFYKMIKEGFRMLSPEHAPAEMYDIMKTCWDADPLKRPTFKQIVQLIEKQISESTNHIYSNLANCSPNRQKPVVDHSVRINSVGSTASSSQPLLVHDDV

Compound `Fc1ccc2ncnc(NCCc3ccc(Cl)cc3)c2c1` [5at, N-[2-(4-Chlorophenyl)Ethyl]-6-Fluoro-4-Quinazolinamine] has a remaining activity at 10 µM (PKCδ(h); [1]) of 88%, a remaining activity at 10 µM (cSRC(h); [1]) of 120% and a remaining activity at 10 µM (cKit(D816V)(h); [1]) of 98%. It also gave a remaining activity at 10 µM (PKCε(h); [1]) of 86%, a remaining activity at 10 µM (Ros(h); [1]) of 105% and a remaining activity at 10 µM (MKK3(h); [1]) of 86%. It also gave a remaining activity at 10 µM (MST1(h); [1]) of 97%, a remaining activity at 10 µM (PhKγ1(h); [1]) of 141% and a remaining activity at 10 µM (FGFR4(h); [1]) of 96%.

Compound `Fc1ccc(CCNc2ncnc3ccc(F)cc23)cc1` [5as, 6-Fluoro-N-[2-(4-Fluorophenyl)Ethyl]-4-Quinazolinamine] has a remaining activity at 10 µM (PKCδ(h); [2]) of 97%, a remaining activity at 10 µM (cSRC(h); [2]) of 81% and a remaining activity at 10 µM (cKit(D816V)(h); [2]) of 111%. The remaining activity at 10 µM (PKCε(h); [2]) was 93%, the remaining activity at 10 µM (Ros(h); [2]) was 101% and the remaining activity at 10 µM (MKK3(h); [2]) was 82%. It also gave a remaining activity at 10 µM (MST1(h); [2]) of 78%, a remaining activity at 10 µM (PhKγ1(h); [2]) of 120% and a remaining activity at 10 µM (FGFR4(h); [2]) of 93%.

With `COc1ccc2ncnc(Nc3cccc(F)c3)c2c1` [5ay, N-(3-Fluorophenyl)-6-Methoxy-4-Quinazolinamine] the remaining activity at 10 µM (PKCδ(h); [3]) was 75%, the remaining activity at 10 µM (cSRC(h); [3]) was 106% and the remaining activity at 10 µM (cKit(D816V)(h); [3]) was 125%. It also gave a remaining activity at 10 µM (PKCε(h); [3]) of 93%, a remaining activity at 10 µM (Ros(h); [3]) of 101% and a remaining activity at 10 µM (MKK3(h); [3]) of 105%. The remaining activity at 10 µM (MST1(h); [3]) was 70%, the remaining activity at 10 µM (PhKγ1(h); [3]) was 121% and the remaining activity at 10 µM (FGFR4(h); [3]) was 98%.

In the case of `Fc1ccc(CNc2ncnc3ccc(F)cc23)cc1` [5aa, 6-Fluoro-N-(4-fluorobenzyl)-4-Quinazolinamine], the remaining activity at 10 µM (PKCδ(h); [4]) is reported as 81%, the remaining activity at 10 µM (cSRC(h); [4]) is reported as 133% and the remaining activity at 10 µM (cKit(D816V)(h); [4]) is reported as 105%. The remaining activity at 10 µM (PKCε(h); [4]) was 95%, the remaining activity at 10 µM (Ros(h); [4]) was 95% and the remaining activity at 10 µM (MKK3(h); [4]) was 101%. For the same compound, the remaining activity at 10 µM (MST1(h); [4]) was 91%, the remaining activity at 10 µM (PhKγ1(h); [4]) was 102% and the remaining activity at 10 µM (FGFR4(h); [4]) was 99%.
